# Several values for one entry are separate records, joined by “and”; a condition that tells them apart may be missing. Equal values may be shown once. Read-outs that look alike come from different tables or passages of the source.
# Key:
# [1] = test system: MRSA 15903; assay: microbe, parasite or virus in culture; type: cell-based, Staphylococcus aureus
# In short: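 Two-agent combinations tested against MRSA 15903; FIC index = A/MICA + B/MICB, using MICs in combination versus alone. Below 0.5 read as clear re-sensitizing, 0.5–4 marginal or null, above 4 antagonism.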
# [2] = test system: S. aureus 43300; assay: Antibiotic MIC by microdilution with or without sub-MIC polymer; type: cell-based, Staphylococcus aureus
# Procedure: (§1) MICs were determined by microdilution susceptibility testing in 96-well plates (by Nunc) using inocula of 10^5 bacteria per ml. Cell populations were evaluated by optical density measurements at 620 nm and were calibrated against a set of standards. Hundred (100) μl of a bacterial suspension were added to 100 μl of culture medium (control) or to 100 μl of culture medium containing various polymer concentrations in 2-fold serial dilutions. Inhibition of proliferation was determined by optical density measurements at 620 nm after an incubation period of 24 hours at 37° C.
# Table 8 below presents the MIC values of antibiotics in presence or absence of C12(5-ene)KKNC12KNH2 (SEQ ID NO: 2) at sub-MIC levels of the polymer, as measured for the S. aureus strains 43300 (ATCC), 15819 (clinical isolate), 15877 (clinical isolate) and 15852 (clinical isolate). MICs were determined by microdilution susceptibility testing in 96-well plates (Nunc) using inocula of 10^5 bacteria per ml. One hundred (100) μl of a bacterial suspension were added to 100 μl of culture medium (control) or to 100 μl of culture medium containing various antibiotic and C12(5-ene)KKNC12KNH2 (SEQ ID NO: 2) concentrations in 2-fold serial dilutions. Inhibition of proliferation was determined by optical density measurements at 620 nm after an incubation period of 24 hours at 37° C.
# (§2) 100 μl of a bacterial suspension were added to 100 μl of culture medium (control) or to 100 μl of culture medium containing various antibiotic and C14(9-ene)KKNC12KNH2 (SEQ ID NO: 5) concentrations in 2-fold serial dilutions. Inhibition of proliferation was determined by optical density measurements at 620 nm after an incubation period of 24 hours at 37° C.
# [3] = test system: S. aureus 15819; assay: as above; type: cell-based, Staphylococcus aureus
# [4] = test system: S. aureus 17314; assay: as above; type: cell-based, Staphylococcus aureus
# [5] = test system: E. coli 16327; assay: microbe, parasite or virus in culture; details: for Antibiotic MIC: E. coli 16327
# Procedure: as §1, §2
# [6] = test system: E. coli 14182; assay: Antibiotic MIC by microdilution with or without sub-MIC polymer; type: cell-based, Escherichia coli
# [7] = test system: S. maltophila 748; assay: as above; type: cell-based, Stenotrophomonas maltophila
# [8] = test system: S. aureus 43300; assay: as above; type: cell-based, Staphylococcus aureus; remark: listed apart in the source
# [9] = +½ MIC (3.12 μM) C14(9-ene)KKNC12KNH2
# [10] = +½ MIC (3.12 μM) C12K(KNC12K)2NH2
smiles,measurement,setting,value
"O=C(O)c1cn(C2CC2)c2cc(N3CCNCC3)c(F)cc2c1=O [Ciprofloxacin, ciprofloxacin]",MIC,"[1]; MRSA 15903, +¼ polymer MIC (1.6 μM) NC12(KNC12K)2NH2",32 µg/mL
same,MIC,"[1]; MRSA 15903, +½ polymer MIC (3.1 μM) NC12(KNC12K)2NH2",1 µg/mL
same,MIC,"[1]; MRSA 15903, +⅓ polymer MIC (2.1 μM) NC12(KNC12K)2NH2",16 µg/mL
same,"MIC, ¼ + MIC OAK","[1]; MRSA 15903, with C12K(KNC10K)3NH2 (SEQ ID NO: 10) at ¼ of its MIC",128 µg/mL
same,"MIC, ½ + MIC OAK","[1]; MRSA 15903, with C12K(KNC10K)3NH2 (SEQ ID NO: 10) at ½ of its MIC",64 µg/mL
same,"MIC, ⅓ + MIC OAK","[1]; MRSA 15903, with C12K(KNC10K)3NH2 (SEQ ID NO: 10) at ⅓ of its MIC",128 µg/mL
same,MIC,"[1]; S. aureus CI-15903, +polymer (¼ MIC) C12(5-ene)KKNC12KNH2",32 µg/mL
same,MIC,"[1]; S. aureus CI-15903, +polymer (½ MIC) C12(5-ene)KKNC12KNH2",0.25 µg/mL
same,MIC,"[1]; S. aureus CI-15903, +polymer (⅓ MIC) C12(5-ene)KKNC12KNH2",4 µg/mL
same,MIC,"[1]; Staphylococcus aureus, MRSA, 24 h, MRSA 15903, antibiotic alone (Table 22), read-out: MIC, Alone",256 µg/mL
same,MIC,"[1]; Staphylococcus aureus, MRSA, 24 h, MRSA 15903, antibiotic alone, read-out: MIC",64 µg/mL
same,MIC,"[1]; Staphylococcus aureus, MRSA, 24 h, S. aureus CI-15903, alone, read-out: MIC",64 µg/mL
same,Antibiotic MIC,[2]; +¼ MIC (1.6 μM) C14(9-ene)KKNC12KNH2,0.25 to 0.5 µg/mL
same,Antibiotic MIC,[2]; +½ MIC (3.12 μM) C12(5-ene)KKNC12KNH2,0.03 µg/mL
same,Antibiotic MIC,[2]; [9],0.25 µg/mL
same,Antibiotic MIC,[2]; +⅓ MIC (2.1 μM) C14(9-ene)KKNC12KNH2,0.25 to 0.5 µg/mL
same,Antibiotic MIC,"[2]; no polymer (None), Table 8",0.5 µg/mL
same,Antibiotic MIC,"[2]; no polymer (None), Table 9",0.5 µg/mL
same,Antibiotic MIC,"[2]; no polymer (None), Table 10",0.25 µg/mL
same,Antibiotic MIC,"[2]; no polymer (None), Table 11",0.5 µg/mL
same,Antibiotic MIC,"[2]; no polymer (None), Table 12",0.5 µg/mL
same,Antibiotic MIC,[3],0.125 µg/mL and 0.125 to 0.25 µg/mL
same,Antibiotic MIC,"[3]; S. aureus 15819, +¼ MIC (1.6 μM) C12K(KNC12K)3NH2",0.125 µg/mL
same,Antibiotic MIC,"[3]; S. aureus 15819, +½ MIC (3.12 μM) C12K(KNC12K)3NH2",0.06 µg/mL
same,Antibiotic MIC,"[3]; S. aureus 15819, +⅓ MIC (2.1 μM) C12K(KNC12K)3NH2",0.125 µg/mL
same,Antibiotic MIC,"[3]; S. aureus 15819, no polymer (None), Table 8",0.125 to 0.25 µg/mL
same,Antibiotic MIC,"[3]; S. aureus 15819, no polymer (None), Table 11",0.125 to 0.25 µg/mL
same,Antibiotic MIC,"[3]; S. aureus 15819, no polymer (None), Table 13",0.25 µg/mL
same,Antibiotic MIC,[4],128 µg/mL
same,Antibiotic MIC,"[4]; S. aureus 17314, +¼ MIC (1.6 μM) C12K(KNC12K)2NH2",128 µg/mL
same,Antibiotic MIC,"[4]; S. aureus 17314, +¼ MIC (1.6 μM) C14(9-ene)KKNC12KNH2",64 µg/mL
same,Antibiotic MIC,"[4]; S. aureus 17314, +¼ MIC (1.6 μM) C16(9-ene)KKNC12KNH2",32 µg/mL
same,Antibiotic MIC,"[4]; S. aureus 17314, +½ MIC (3.12 μM) C12K(KNC12K)2NH2",64 µg/mL
same,Antibiotic MIC,"[4]; S. aureus 17314, +½ MIC (3.12 μM) C12KKNC12KNH2",64 µg/mL
same,Antibiotic MIC,"[4]; S. aureus 17314, +½ MIC (3.12 μM) C14(9-ene)KKNC12KNH2",64 µg/mL
same,Antibiotic MIC,"[4]; S. aureus 17314, +½ MIC (3.12 μM) C16(9-ene)KKNC12KNH2",16 µg/mL
same,Antibiotic MIC,"[4]; S. aureus 17314, +⅓ MIC (2.1 μM) C12K(KNC12K)2NH2",64 µg/mL
same,Antibiotic MIC,"[4]; S. aureus 17314, +⅓ MIC (2.1 μM) C12KKNC12KNH2",64 µg/mL
same,Antibiotic MIC,"[4]; S. aureus 17314, +⅓ MIC (2.1 μM) C14(9-ene)KKNC12KNH2",64 µg/mL
same,Antibiotic MIC,"[4]; S. aureus 17314, +⅓ MIC (2.1 μM) C16(9-ene)KKNC12KNH2",32 µg/mL
same,Antibiotic MIC,"[4]; S. aureus 17314, no polymer (None), Table 9",64 µg/mL
same,Antibiotic MIC,"[4]; S. aureus 17314, no polymer (None), Table 10",64 µg/mL
same,Antibiotic MIC,"[4]; S. aureus 17314, no polymer (None), Table 11",128 µg/mL
same,Antibiotic MIC,"[4]; S. aureus 17314, no polymer (None), Table 12",128 µg/mL
same,Antibiotic MIC,[5]; +¼ MIC (1.6 μM) C12K(KNC12K)2NH2,>512 µg/mL
same,Antibiotic MIC,[5]; [10],128 µg/mL
same,Antibiotic MIC,[5]; [9],32 to 64 µg/mL
same,Antibiotic MIC,[5]; +⅓ MIC (2.1 μM) C12K(KNC12K)2NH2,>512 µg/mL
same,Antibiotic MIC,"[5]; no polymer (None), Table 9",>512 µg/mL
same,Antibiotic MIC,"[5]; no polymer (None), Table 10",>512 µg/mL
same,Antibiotic MIC,"[5]; no polymer (None), Table 12",>512 µg/mL
same,"MIC, ¼ + MIC OAK","[5]; E. coli U16327, with C12K(KNC10K)3NH2 (SEQ ID NO: 10) at ¼ of its MIC",128 to 256 µg/mL
same,"MIC, ½ + MIC OAK","[5]; E. coli U16327, with C12K(KNC10K)3NH2 (SEQ ID NO: 10) at ½ of its MIC",128 µg/mL
same,"MIC, ⅓ + MIC OAK","[5]; E. coli U16327, with C12K(KNC10K)3NH2 (SEQ ID NO: 10) at ⅓ of its MIC",128 µg/mL
same,"Antibiotic MIC, None","[5]; E. coli U-16327, antibiotic alone (Table 15)",128 to 256 µg/mL
same,"Antibiotic MIC in presence of C12K(NC8K)7NH2 (SEQ ID NO: 4), +¼ MIC","[5]; E. coli U-16327, polymer at ¼ of its MIC",64 to 128 µg/mL
same,"Antibiotic MIC in presence of C12K(NC8K)7NH2 (SEQ ID NO: 4), +½ MIC","[5]; E. coli U-16327, polymer at ½ of its MIC",16 µg/mL
same,"Antibiotic MIC in presence of C12K(NC8K)7NH2 (SEQ ID NO: 4), +⅓ MIC","[5]; E. coli U-16327, polymer at ⅓ of its MIC",32 to 64 µg/mL
same,MIC,"[5]; Escherichia coli, 16327, read-out: MIC, Alone",256 µg/mL
same,"Antibiotic MIC, None",[6]; antibiotic alone (Table 15),<0.03 µg/mL
same,Antibiotic MIC,"[6]; no polymer (None), Table 14",<0.03 µg/mL
same,Antibiotic MIC,[7]; +¼ MIC (1.6 μM) C12K(KNC12K)3NH2,8 µg/mL
same,Antibiotic MIC,[7]; +½ MIC (3.12 μM) C12K(KNC12K)3NH2,2 µg/mL
same,Antibiotic MIC,[7]; +⅓ MIC (2.1 μM) C12K(KNC12K)3NH2,4 to 8 µg/mL
same,Antibiotic MIC,"[7]; no polymer (None), Table 13",8 µg/mL
same,Antibiotic MIC,[8]; +¼ MIC (1.6 μM) C12(5-ene)KKNC12KNH2,0.25 µg/mL
same,Antibiotic MIC,[8]; +¼ MIC (1.6 μM) C12KKNC12KNH2,0.5 µg/mL
same,Antibiotic MIC,[8]; +¼ MIC (1.6 μM) C16(9-ene)KKNC12KNH2,0.25 µg/mL
same,Antibiotic MIC,[8]; [10],0.13 to 0.25 µg/mL
same,Antibiotic MIC,[8]; +½ MIC (3.12 μM) C12KKNC12KNH2,0.25 µg/mL
same,Antibiotic MIC,[8]; +½ MIC (3.12 μM) C16(9-ene)KKNC12KNH2,0.125 µg/mL
same,Antibiotic MIC,[8]; +⅓ MIC (2.1 μM) C12(5-ene)KKNC12KNH2,0.125 µg/mL
same,Antibiotic MIC,[8]; +⅓ MIC (2.1 μM) C12KKNC12KNH2,0.5 µg/mL
same,Antibiotic MIC,[8]; +⅓ MIC (2.1 μM) C16(9-ene)KKNC12KNH2,0.25 µg/mL

# Reference: US20180153995A1, “USE OF ANTIMICROBIAL POLYMERS FOR RE-SENSITIZATION OF MICROORGANISMS UPON EMERGENCE OF RESISTANCE TO ANTI-MICROBIAL AGENTS” (Technion Research & Development Foundation Limited, priority 2008, published 2018)
